According to PMC10057847, “Precision engineering of biological function with large-scale measurements and machine learning” (PLOS ONE, 2023):

Legend:
Test in all cases: In vivo IPTG dose-response of LacI-regulated eYFP expression from the pVER plasmid in E. coli grown in rich M9 medium at 37 °C, measured by flow cytometry and fitted to the Hill equation by Bayesian MCMC (posterior mean and SD).
Assay type in all cases: cell-based, E. coli MG1655Δlac
Conditions in all cases: read-out: log_ec50 (base-10 logarithm of EC50 in μmol/L) (converted)
[1] = target: T1, pVER-IPTG-078 (Escherichia coli, UniProt P03023, A110V/A72V/N142D/S322L)
T1 construct: gene lacI; LacI expressed from pVER plasmid
T1 sequence (P03023 whole entry A72V/A110V/N142D/S322L): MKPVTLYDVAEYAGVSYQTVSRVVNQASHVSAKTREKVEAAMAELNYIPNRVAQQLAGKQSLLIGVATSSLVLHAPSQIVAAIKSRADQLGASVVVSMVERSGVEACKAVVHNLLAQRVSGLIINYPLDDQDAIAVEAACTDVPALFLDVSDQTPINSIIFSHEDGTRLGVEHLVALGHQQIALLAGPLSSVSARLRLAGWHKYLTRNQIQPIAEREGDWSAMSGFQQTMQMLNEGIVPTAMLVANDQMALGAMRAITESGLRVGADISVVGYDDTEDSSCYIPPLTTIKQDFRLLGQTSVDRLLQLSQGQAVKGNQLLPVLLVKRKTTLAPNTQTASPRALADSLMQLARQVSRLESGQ
Method: (§1) All reported measurements were completed using E. coli strain MG1655Δlac, in which the lactose operon of E. coli strain MG1655 (ATCC #47076) was replaced with the bleomycin resistance gene from Streptoalloteichus hindustanus (Shble).
(§2) Dose-response curves were measured with flow cytometry using E. coli MG1655Δlac transformed with variants of the pVER plasmid, described previously. The plasmid contained different variants of the lacI coding DNA sequence (CDS), as described in the text, and an expression cassette with enhanced yellow fluorescent protein (eYFP) under the control of the lactose operator (lacO). The lacI CDS was verified with Sanger sequencing for each variant.
(§3) All cultures were grown in a rich M9 media (3 g/L KH2PO4, 6.78 g/L Na2HPO4, 0.5 g/L NaCl, 1 g/L NH4Cl, 0.1 mmol/L CaCl2, 2 mmol/L MgSO4, 4% glycerol, and 20 g/L casamino acids) supplemented with 50 μg/mL kanamycin.
(§4) • Prepare first growth plate, with 450 μL rich M9 media in each well. • Pipette 50 μL of starter culture into each well in rows B-G of the plate (leaving rows A and H blank). • Use a E. coli containing a different lacI variant for each row. • Seal first growth plate with gas permeable membrane. • Incubate plate in plate reader for 12 h to 14 h. • Grow to stationary to provide a reproducible starting point for each measurement. • Prepare second growth plate with 490 μL in each well. • Dilution series of isopropyl-β-D-thiogalactopyranoside (IPTG): 11 columns of a 2-fold serial dilution gradient and one column with zero IPTG. • Ten minutes before the end of the incubation cycle for the first growth plate, move the second growth plate to a heated station set to 47°C. • Ten minutes at 47°C will pre-warm the media in the plate to 37°C. • De-seal the first growth plate (after completion of the stationary-phase incubation cycle). • Pipette 10 μL from each well in the first growth plate to the corresponding well in the second growth plate. • 50-fold dilution; using a 96-channel pipetting head. • Seal second growth plate with gas permeable membrane. • Incubate second growth plate in plate reader for 160 minutes. • Sufficient for approximately 10-fold increase in cell density or 3.3 doublings. • Prepare third growth plate with 450 μL in each well. • Same dilution series as in second growth plate. • Ten minutes before the end of the incubation cycle for the second growth plate, move the third growth plate to a heated station set to 47°C. • De-seal the second growth plate (after completion of the 160 minute incubation cycle). • Pipette 50 μL from each well in the second growth plate to the corresponding well in the third growth plate. • 10-fold dilution; using a 96-channel pipetting head. • Seal third growth plate with gas permeable membrane. • Incubate third growth plate in plate reader for 160 minutes. • Prepare flow cytometry sample plate (round-bottom 96-well plate, Falcon, 351177). • Each well in rows B-G: 195 μL 1x PBS with 170 μg/mL chloramphenicol (Fisher BioReagents, cat. #BP904-100). • Rows A and H: PBS blanks, focusing fluid blanks, and space for calibration bead sample • At the end of the incubation cycle for the third growth plate, pipette 5 μL from each well to the corresponding well in the flow cytometry sample plate.
(§5) Flow cytometry samples were measured with an Attune NxT flow cytometer equipped with a 96-well plate autosampler using a 488 nm excitation laser and a 530 nm ± 15 nm bandpass emission filter. Blank samples were measured with each batch of cell measurements, and an automated gating algorithm was used to discriminate cell events from non-cell events. Fluorescence calibration beads (Spherotech, part no. RCP-30-20A) were also measured with each batch of samples to facilitate calibration of flow cytometry data to molecules of equivalent fluorescein (MEF). […]

[2] = target: T2, pVER-IPTG-007 (Escherichia coli, UniProt P03023, A199V/D88Y/K84E/L342M/L90P/Q153L/R351P/S358R)
T2 construct: gene lacI; LacI expressed from pVER plasmid
T2 sequence (P03023 whole entry K84E/D88Y/L90P/Q153L/A199V/L342M/R351P/S358R): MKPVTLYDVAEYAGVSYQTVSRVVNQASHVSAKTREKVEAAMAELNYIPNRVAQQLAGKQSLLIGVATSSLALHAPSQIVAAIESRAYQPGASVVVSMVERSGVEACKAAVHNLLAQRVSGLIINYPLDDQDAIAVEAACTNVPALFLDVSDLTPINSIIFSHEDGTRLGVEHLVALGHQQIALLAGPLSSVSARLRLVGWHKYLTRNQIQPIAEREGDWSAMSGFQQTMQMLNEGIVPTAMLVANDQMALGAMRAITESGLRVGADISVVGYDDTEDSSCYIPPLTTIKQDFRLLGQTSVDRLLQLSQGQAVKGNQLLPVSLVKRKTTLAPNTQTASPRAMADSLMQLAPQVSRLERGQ
Method: as §1, §2, §3, §4, §5

[3] = target: T3, pVER-IPTG-080 (Escherichia coli, UniProt P03023, A109E/D165V/E259G/G166A/R255C)
T3 construct: gene lacI; LacI expressed from pVER plasmid
T3 sequence (P03023 whole entry A109E/D165V/G166A/R255C/E259G): as the sequence (P03023 whole entry A72V/A110V/N142D/S322L) above, with V72A, A109E, V110A, D142N, D165V, G166A, R255C, E259G, L322S counted along it
Method: as §1, §2, §3, §4, §5

[4] = target: T4, pVER-IPTG-001 (Escherichia coli, UniProt P03023, D130E/D267N/N333I/Q55H/T258I/V192A/Y273H)
T4 construct: gene lacI; LacI expressed from pVER plasmid
T4 sequence (P03023 whole entry Q55H/D130E/V192A/T258I/D267N/Y273H/N333I): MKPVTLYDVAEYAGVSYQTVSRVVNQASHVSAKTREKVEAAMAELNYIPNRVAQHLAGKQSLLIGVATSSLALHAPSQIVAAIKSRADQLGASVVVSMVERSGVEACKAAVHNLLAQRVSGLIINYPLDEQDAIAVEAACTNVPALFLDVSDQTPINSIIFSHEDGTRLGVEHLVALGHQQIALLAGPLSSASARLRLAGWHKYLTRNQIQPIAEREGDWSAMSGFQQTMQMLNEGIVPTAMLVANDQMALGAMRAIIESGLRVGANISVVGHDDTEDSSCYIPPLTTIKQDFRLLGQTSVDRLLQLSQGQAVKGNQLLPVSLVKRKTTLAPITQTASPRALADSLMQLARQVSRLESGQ
Method: as §1, §2, §3, §4, §5

[5] = target: T5, pVER-IPTG-005 (Escherichia coli, UniProt P03023, A176S/E172D/F226Y/G91D/R101G/S158C/T167M/T276S/T299A/V94A)
T5 construct: gene lacI; LacI expressed from pVER plasmid
T5 sequence (P03023 whole entry G91D/V94A/R101G/S158C/T167M/E172D/A176S/F226Y/T276S/T299A): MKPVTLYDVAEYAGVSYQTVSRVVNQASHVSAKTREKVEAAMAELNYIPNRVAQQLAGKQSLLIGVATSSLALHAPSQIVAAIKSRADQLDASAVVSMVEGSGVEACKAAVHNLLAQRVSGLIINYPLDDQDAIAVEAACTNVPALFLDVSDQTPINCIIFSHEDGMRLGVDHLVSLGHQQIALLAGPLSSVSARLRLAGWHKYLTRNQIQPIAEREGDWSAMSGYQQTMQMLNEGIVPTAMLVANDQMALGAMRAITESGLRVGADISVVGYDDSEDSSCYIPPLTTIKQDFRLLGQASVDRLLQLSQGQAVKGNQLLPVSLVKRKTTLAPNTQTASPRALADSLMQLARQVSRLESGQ
Method: as §1, §2, §3, §4, §5

[6] = target: T6, pVER-IPTG-004 (Escherichia coli, UniProt P03023, A87P/E357G/V301M)
T6 construct: gene lacI; LacI expressed from pVER plasmid
T6 sequence (P03023 whole entry A87P/V301M/E357G): as the sequence (P03023 whole entry A72V/A110V/N142D/S322L) above, with V72A, A87P, V110A, D142N, V301M, L322S, E357G counted along it
Method: as §1, §2, §3, §4, §5

[7] = target: T7, pVER-IPTG-003 (Escherichia coli, UniProt P03023, A337V/G200V/H74Y/K290R/L262M/Q306H/R207H/V119I/V52M)
T7 construct: gene lacI; LacI expressed from pVER plasmid; stop codon at 352
T7 sequence (P03023 1-351 V52M/H74Y/V119I/G200V/R207H/L262M/K290R/Q306H/A337V): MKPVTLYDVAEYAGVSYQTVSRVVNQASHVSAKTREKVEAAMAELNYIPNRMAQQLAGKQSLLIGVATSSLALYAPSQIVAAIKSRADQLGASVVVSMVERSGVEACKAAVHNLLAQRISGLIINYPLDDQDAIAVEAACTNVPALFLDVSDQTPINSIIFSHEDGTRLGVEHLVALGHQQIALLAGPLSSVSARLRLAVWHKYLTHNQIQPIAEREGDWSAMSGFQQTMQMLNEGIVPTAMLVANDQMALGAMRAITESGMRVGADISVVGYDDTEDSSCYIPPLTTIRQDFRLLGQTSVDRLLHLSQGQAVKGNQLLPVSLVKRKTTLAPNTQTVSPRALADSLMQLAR
Method: as §1, §2, §3, §4, §5

[8] = target: T8, pVER-IPTG-008 (Escherichia coli, UniProt P03023, A266T/I237T/I289F/S61L/T258S)
T8 construct: gene lacI; LacI expressed from pVER plasmid; stop codon at 351
T8 sequence (P03023 1-350 S61L/I237T/T258S/A266T/I289F): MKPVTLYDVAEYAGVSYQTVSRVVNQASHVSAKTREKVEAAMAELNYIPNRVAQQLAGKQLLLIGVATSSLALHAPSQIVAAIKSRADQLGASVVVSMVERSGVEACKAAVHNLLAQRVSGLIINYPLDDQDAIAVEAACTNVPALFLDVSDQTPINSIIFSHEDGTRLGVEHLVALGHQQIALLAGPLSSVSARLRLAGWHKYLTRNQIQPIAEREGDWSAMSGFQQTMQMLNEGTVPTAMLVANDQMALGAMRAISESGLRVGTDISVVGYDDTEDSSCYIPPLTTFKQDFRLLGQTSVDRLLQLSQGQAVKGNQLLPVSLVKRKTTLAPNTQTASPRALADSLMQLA
Method: as §1, §2, §3, §4, §5

[9] = target: T9, pVER-IPTG-006 (Escherichia coli, UniProt P03023, A241V/A341T/D88Y/L305M/L319F/L346S/N246S/P339T)
T9 construct: gene lacI; LacI expressed from pVER plasmid
T9 sequence (P03023 whole entry D88Y/A241V/N246S/L305M/L319F/P339T/A341T/L346S): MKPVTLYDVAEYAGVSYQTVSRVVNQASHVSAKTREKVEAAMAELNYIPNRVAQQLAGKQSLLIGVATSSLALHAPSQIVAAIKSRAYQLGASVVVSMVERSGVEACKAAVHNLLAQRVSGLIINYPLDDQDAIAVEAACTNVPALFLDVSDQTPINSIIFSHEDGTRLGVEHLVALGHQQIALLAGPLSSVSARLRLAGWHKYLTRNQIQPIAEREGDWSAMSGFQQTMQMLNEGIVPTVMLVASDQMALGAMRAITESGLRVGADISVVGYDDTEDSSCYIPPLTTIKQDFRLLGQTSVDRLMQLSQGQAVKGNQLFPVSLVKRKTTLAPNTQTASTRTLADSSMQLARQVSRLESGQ
Method: as §1, §2, §3, §4, §5

[10] = target: T10, pVER-IPTG-082 (Escherichia coli, UniProt P03023, G200A/Q209R/Q317L/R263H/S190C/V94M)
T10 construct: gene lacI; LacI expressed from pVER plasmid
T10 sequence (P03023 whole entry V94M/S190C/G200A/Q209R/R263H/Q317L): as the sequence (P03023 whole entry A72V/A110V/N142D/S322L) above, with V72A, V94M, V110A, D142N, S190C, G200A, Q209R, R263H, Q317L, L322S counted along it
Method: as §1, §2, §3, §4, §5

[11] = target: T11, pVER-IPTG-010 (Escherichia coli, UniProt P03023, A72V/I210F/K84N/M254T/T336S)
T11 construct: gene lacI; LacI expressed from pVER plasmid
T11 sequence (P03023 whole entry A72V/K84N/I210F/M254T/T336S): as the sequence (P03023 whole entry A72V/A110V/N142D/S322L) above, with K84N, V110A, D142N, I210F, M254T, L322S, T336S counted along it
Method: as §1, §2, §3, §4, §5

[12] = target: T12, pVER-IPTG-077 (Escherichia coli, UniProt P03023, A222T/D152E/I64V/K327N/L295M/N208I/Q131R/T141A/V95M)
T12 construct: gene lacI; LacI expressed from pVER plasmid
T12 sequence (P03023 whole entry I64V/V95M/Q131R/T141A/D152E/N208I/A222T/L295M/K327N): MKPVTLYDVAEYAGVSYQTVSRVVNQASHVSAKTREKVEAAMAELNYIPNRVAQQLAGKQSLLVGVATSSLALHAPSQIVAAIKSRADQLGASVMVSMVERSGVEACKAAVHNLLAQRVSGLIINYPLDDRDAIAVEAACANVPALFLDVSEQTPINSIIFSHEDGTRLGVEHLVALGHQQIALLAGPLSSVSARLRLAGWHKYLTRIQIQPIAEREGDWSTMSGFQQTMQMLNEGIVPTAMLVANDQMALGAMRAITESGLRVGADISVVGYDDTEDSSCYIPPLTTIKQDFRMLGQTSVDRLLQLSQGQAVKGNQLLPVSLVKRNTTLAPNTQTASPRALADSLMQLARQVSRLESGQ
Method: as §1, §2, §3, §4, §5

`CC(C)S[C@@H]1O[C@H](CO)[C@H](O)[C@H](O)[C@H]1O` [IPTG, isopropyl-β-D-thiogalactopyranoside] was tested, and the EC50 [1] was 3.61 µmol/L, the EC50 [2] was 29.4 µmol/L and the EC50 [3] was 6.96 µmol/L. For the same molecule, the EC50 [4] was 774 µmol/L, the EC50 [5] was 203 µmol/L and the EC50 [6] was 234 µmol/L. The EC50 [7] was 162 µmol/L, the EC50 [8] was 77.3 µmol/L and the EC50 [9] was 540 µmol/L. For the same molecule, the EC50 [10] was 27.8 µmol/L, the EC50 [11] was 9.17 µmol/L and the EC50 [12] was 2.95 µmol/L.
